The numbers were not newly measured in patent publication US20260216106A1, “DOSAGE FORM FOR INTRA-ARTICULAR INJECTION […] USE IN THE TREATMENT OF A JOINT DISEASE SUCH AS OSTEOARTHRITIS” (priority 2023, published 2026), which cites them from elsewhere.

For the data set the following is noted: literature (Niel et al 2006).

For the compound `COc1cc2c(c(OC)c1OC)-c1ccc(OC)c(=O)cc1[C@@H](NC(C)=O)CC2` [colchicine, N-[(7S)-1,2,3,10-tetramethoxy-9-oxo-6,7-dihydro-5H-benzo[a]heptalen-7-yl]acetamide], the lethal dose is reported as 0.8 mg/kg and the toxicity limit dose was 0.1 mg/kg.
